Tests used:
HRV 16 = assay: microbe, parasite or virus in culture; type: cell-based, Human Rhinovirus 16 strain 11757; conditions: Rhinovirus A, H1-HeLa, 48 h, read-out: HRV / H1 HeLa A16 EC50
SARS-CoV-2 = assay: microbe, parasite or virus in culture; type: cell-based, SARS-CoV-2 strain USA-WA1/2020; conditions: Severe acute respiratory syndrome coronavirus 2, HeLa-ACE2, 24 h, read-out: SARS-CoV-2 / HeLa-ACE2 EC50
RSV A2 = assay: microbe, parasite or virus in culture; type: cell-based; conditions: human respiratory syncytial virus, HEp-2, 72 h, read-out: RSV A2 / Hep2 EC50
HRV 14 = assay: microbe, parasite or virus in culture; type: cell-based, Human Rhinovirus 14 strain 1059; conditions: Rhinovirus B, H1-HeLa, 48 h, read-out: HRV / H1 HeLa B 14 EC50
in vitro [1] = conditions: human, hep2 cells
in vitro [2] = conditions: human, hela-ace2 cells
in vitro [3] = conditions: human, h1 hela cells
in vitro [4] = conditions: human, hepg2 cells
DENV-2 = assay: microbe, parasite or virus in culture; type: cell-based, DENV-2 16681; conditions: Dengue virus, DENV2, HepG2, 24 h, read-out: DENV-2 / HepG2 EC50
HCMV = assay: HCMV/HFF antiviral assay; type: cell-based; conditions: Human betaherpesvirus 5, HFF

| SMILES | EC50 (HRV 16) [µM] | EC50 (SARS-CoV-2) [µM] | EC50 (RSV A2) [µM] | EC50 (HRV 14) [µM] | CC50 (in vitro [1]) [µM] | CC50 at 24 h (in vitro [2]) [µM] | CC50 (in vitro [3]) [µM] | CC50 at 72 h (in vitro [4]) [µM] | EC50 (DENV-2) [µM] | EC50 (HCMV) [µM] |
| --- | --- | --- | --- | --- | --- | --- | --- | --- | --- | --- |
| C[C@]1(O)[C@H](n2ccc3c(N)ncnc32)O[C@](F)(CO)[C@H]1O [Example 10, (2S,3S,4R,5R)-5-(4-amino-7H-pyrrolo[2,3-d]pyrimidin-7-yl)-2-fluoro-2-(hydroxymethyl)-4-methyltetrahydrofuran-3,4-diol] | > 10 | > 10 | > 10 | > 10 | > 99 | > 99 | > 99 | > 99 | > 10 |  |
| C#Cc1nc(N)c2ncn([C@@H]3O[C@](F)(CO)[C@@H](O)[C@H]3O)c2n1 [Example 18, (2S,3S,4R,5R)-5-(6-amino-2-ethynyl-9H-purin-9-yl)-2-fluoro-2-(hydroxymethyl)tetrahydrofuran-3,4-diol] | > 10 | > 10 | > 10 | > 10 | > 99 | > 99 | > 99 | > 99 | > 10 |  |
| OC[C@@]1(F)O[C@@H](n2ccc3cncnc32)[C@H](O)[C@@H]1O [Example 23, (2S,3S,4R,5R)-2-fluoro-2-(hydroxymethyl)-5-(7H-pyrrolo[2,3-d]pyrimidin-7-yl)tetrahydrofuran-3,4-diol] | 1 to 10 | 1 to 10 | 1 to 10 | 1 to 10 | 10 to 99 | 1 to 10 | 10 to 99 | 1 to 10 | 0.1 to 1 |  |
| N#Cc1cn([C@@H]2O[C@](F)(CO)[C@@H](O)[C@H]2O)c2ncnc(N)c12 [Example 26, 4-amino-7-((2R,3R,4S,5S)-5-fluoro-3,4-dihydroxy-5-(hydroxymethyl)tetrahydrofuran-2-yl)-7H-pyrrolo[2,3-d]pyrimidine-5-carbonitrile] | > 10 | 0.1 to 1 | < 0.1 | > 10 | < 1 | < 1 | 1 to 10 | < 1 | < 0.1 |  |
| Nc1nc(Cl)c2ccn([C@@H]3O[C@](F)(CO)[C@@H](O)[C@H]3O)c2n1 [Example 27, (2S,3S,4R,5R)-5-(2-amino-4-chloro-7H-pyrrolo[2,3-d]pyrimidin-7-yl)-2-fluoro-2-(hydroxymethyl)tetrahydrofuran-3,4-diol] | > 10 | > 10 | > 10 | > 10 | 10 to 99 | 10 to 99 | 10 to 99 | 10 to 99 | > 10 |  |
| Cc1nc(Cl)c2ccn([C@@H]3O[C@](F)(CO)[C@@H](O)[C@H]3O)c2n1 [Example 29, (2S,3S,4R,5R)-5-(4-chloro-2-methyl-7H-pyrrolo[2,3-d]pyrimidin-7-yl)-2-fluoro-2-(hydroxymethyl)tetrahydrofuran-3,4-diol] | > 10 | > 10 | > 10 | > 10 |  | > 99 | > 99 | > 99 | > 10 |  |
| NC(=O)c1cc([C@@H]2O[C@](F)(COC(=O)c3ccccc3)[C@@H](O)[C@H]2O)n2ncnc(N)c12 [Example 34, ((2S,3S,4R,5S)-5-(4-amino-5-carbamoylpyrrolo[2,1-f][1,2,4]triazin-7-yl)-2-fluoro-3,4-dihydroxytetrahydrofuran-2-yl)methyl benzoate] | > 10 | > 10 | 0.1 to 1 | > 10 | < 1 | 1 to 10 | 1 to 10 | < 1 | 1 to 10 |  |
| COc1ncnc2c1ccn2[C@@H]1O[C@](F)(CO)[C@@H](O)[C@H]1O [Example 41, (2S,3S,4R,5R)-2-fluoro-2-(hydroxymethyl)-5-(4-methoxy-7H-pyrrolo[2,3-d]pyrimidin-7-yl)tetrahydrofuran-3,4-diol] | > 10 | > 10 | > 10 | > 10 | 10 to 99 | 10 to 99 | 10 to 99 | 10 to 99 | > 10 |  |
| Nc1nc(Cl)nc2c1ncn2[C@@H]1O[C@](F)(CO)[C@@H](O)[C@H]1O [Example 43, (2S,3S,4R,5R)-5-(6-amino-2-chloro-9H-purin-9-yl)-2-fluoro-2-(hydroxymethyl)tetrahydrofuran-3,4-diol] | > 10 | > 10 | > 10 | > 10 | > 99 | > 99 | 10 to 99 | 10 to 99 | > 10 |  |
| C#C[C@]1(O)[C@H](n2ccc(N)nc2=O)O[C@](F)(CO)[C@H]1O [Example 44, 4-amino-1-((2R,3R,4S,5S)-3-ethynyl-5-fluoro-3,4-dihydroxy-5-(hydroxymethyl)tetrahydrofuran-2-yl)pyrimidin-2(1H)-one] | > 10 | > 10 | > 10 | > 10 | 10 to 99 | > 99 | 10 to 99 | > 99 | > 10 |  |
| CC(=O)O[C@H]1[C@H](n2ncc(=O)[nH]c2=O)O[C@](F)(COC(=O)c2ccccc2)[C@H]1OC(C)=O [Example 45, (2S,3S,4R,5R)-2-((benzoyloxy)methyl)-5-(3,5-dioxo-4,5-dihydro-1,2,4-triazin-2(3H)-yl)-2-fluorotetrahydrofuran-3,4-diyl diacetate] | > 10 | > 10 | > 10 | > 10 | > 99 | > 99 | > 99 | > 99 | > 10 |  |
| CC(C)OC(=O)[C@H](C)N[P@@](=O)(OC[C@@]1(F)O[C@@H](n2ccc3c(N)ncnc32)[C@H](O)[C@@H]1O)Oc1ccccc1 [Example 49, isopropyl ((R)-(((2S,3S,4R,5R)-5-(4-amino-7H-pyrrolo[2,3-d]pyrimidin-7-yl)-2-fluoro-3,4-dihydroxytetrahydrofuran-2-yl)methoxy)(phenoxy)phosphoryl)-L-alaninate] | > 10 | > 10 |  | 1 to 10 |  | > 99 | > 99 | > 99 | 1 to 10 |  |
| N#Cc1ncnc2c1ccn2[C@@H]1O[C@](F)(COC(=O)c2ccccc2)[C@@H](O)[C@H]1OC(=O)c1ccccc1 [Example 50, ((2S,3S,4R,5R)-4-(benzoyloxy)-5-(4-cyano-7H-pyrrolo[2,3-d]pyrimidin-7-yl)-2-fluoro-3-hydroxytetrahydrofuran-2-yl)methyl benzoate] | > 10 | > 10 | > 10 | > 10 | 10 to 99 | 10 to 99 | 10 to 99 | 1 to 10 | 0.1 to 1 |  |
| CNc1nc(N)nc2c1ccn2[C@@H]1O[C@](F)(COC(=O)c2ccccc2)[C@@H](O)[C@H]1O [Example 56, ((2S,3S,4R,5R)-5-(2-amino-4-(methylamino)-7H-pyrrolo[2,3-d]pyrimidin-7-yl)-2-fluoro-3,4-dihydroxytetrahydrofuran-2-yl)methyl benzoate] | > 10 | > 10 | > 10 | > 10 | > 99 | > 99 | > 99 | > 99 | > 10 |  |
| CCOc1nc(N)nc2c1ncn2[C@@H]1O[C@](F)(CO)[C@@H](O)[C@@]1(C)Cl [Example 63, (2S,3R,4R,5R)-5-(2-amino-6-ethoxy-9H-purin-9-yl)-4-chloro-2-fluoro-2-(hydroxymethyl)-4-methyltetrahydrofuran-3-ol] |  | > 10 | > 10 | > 10 | > 99 | > 99 | > 99 | 10 to 99 | > 10 | > 10 |
| CCOc1nc(N)nc2c1ncn2[C@@H]1O[C@](F)(CO)[C@@H](O)[C@]1(F)Cl [Example 66, (2S,3R,4S,5R)-5-(2-amino-6-ethoxy-9H-purin-9-yl)-4-chloro-2,4-difluoro-2-(hydroxymethyl)tetrahydrofuran-3-ol] |  | > 10 | > 10 | > 10 | > 99 | > 99 | > 99 | > 99 | > 10 | > 10 |
| CCOc1nc(N)nc2c1ncn2[C@@H]1O[C@](F)(COP(=O)(N[C@@H](C)C(=O)OC(C)C)Oc2ccccc2)[C@@H](O)C1(F)F (stereo partly drawn) [Example 69, isopropyl ((((2S,3R,5R)-5-(2-amino-6-ethoxy-9H-purin-9-yl)-2,4,4-trifluoro-3-hydroxytetrahydrofuran-2-yl)methoxy)(phenoxy)phosphoryl)-L-alaninate] |  | > 10 | > 10 | > 10 | 10 to 99 | 10 to 99 | 10 to 99 | 10 to 99 | 1 to 10 | > 10 |
